The source of these data is patent US8946268B2, “Modulators of HEC1 activity and methods therefor” (Taivex Therapeutics, Inc., priority 2010, dated 2015).

The structures appear in SMILES notation. Several values for one entry are separate records, joined by “and”; a condition that tells them apart may be missing. Identical values can stand only once. Like-named read-outs stand apart in the source and are kept apart here.

What is called MRT is the average time that molecules of a dose stay in the body. What is called half-life is the time in which the quantity being followed falls by half. Low readings indicate rapid decline, high ones slow decline. What is called Tmax is the time at which the peak concentration occurs. A word on the IC50: it is the point on the concentration scale where inhibition reaches its midpoint. Low readings indicate greater potency, high ones weaker potency.

Data set [1] is described as follows: Pharmacokinetics in rats after i.v. injection. The format is in vivo, SD rat. The method, then: (§1) Bioavailability: Selected compounds were administered to rats per os or via injection following well known procedures.
Data set [2] is described as follows: Pharmacokinetics in rats after oral administration. The format is in vivo, SD rat. Conditions: for MRT inf: read-out: MRT0-inf. As to the method:
as §1

Data set [3] concerns K562. As to the kind of experiment: Antiproliferative activity (MTS assay), K562. Conditions: Homo sapiens, K562, 96 h, K562 cells. The format is cell-based. An outline of the steps: (§2)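 Cells were dosed in triplicate after overnight attachment and incubated 96 h at 37 °C, with DMSO controls. Viability was read by MTS absorbance. Values come from concentration-response curves by linear regression, with GI50 corrected for time-zero cell count as [1−(T−T0)/(C−T0)]×100.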
For orientation: Formazan colour is commonly taken as a measure of viable cells.

The test system of data set [4] is Hela. Briefly: Antiproliferative activity (MTS assay), Hela. The format is cell-based. Conditions: Homo sapiens, HeLa, 96 h, Hela cells. A digest of the protocol: as §2
For data set [5], the system named is MDA-MB-468. Briefly: Antiproliferative activity (MTS assay), MDA-MB-468. The format is cell-based. Conditions: Homo sapiens, MDA-MB-468, 96 h, MDA-MB-468 cells. An outline of the steps: as §2
The test system of data set [6] is MDA-MB-231. As to the kind of experiment: Antiproliferative activity (MTS assay), MDA-MB-231. Conditions: Homo sapiens, MDA-MB-231, 96 h, MDA-MB-231 cells. The format is cell-based. A digest of the protocol: as §2
Setting [7] is: compound 42 i.v., SD rat, individual rats No. 1-3.
Setting [8] is: compound 42 oral, SD rat, individual rats No. 1-3.
The mark [9] stands for this setting: i.v. 2 mg/kg, SD rat, individual rats No. 1-3, 2 mg/kg.
Setting [10] is: Sprague-Dawley, rat, serum, po, 20 mg/kg, oral 20 mg/kg, 1% methyl-cellulose, SD rat, Mean.
Where [11] appears, read: Sprague-Dawley, rat, serum, po, 20 mg/kg, oral 20 mg/kg, SD rat, individual rats No. 1-3.
The mark [12] stands for this setting: oral 20 mg/kg, SD rat, individual rats No. 1-3, 20 mg/kg.
The mark [13] stands for this setting: compound 95 i.v., SD rat, individual rats No. 1-3.
Where [14] appears, read: compound 95 oral, SD rat, individual rats No. 1-3.

On to `COc1cc(C)c(-c2csc(NC(=O)c3ccncc3)n2)c(C)c1` [Compound 42], for which the C0 in data set [1] (Sprague-Dawley, rat, serum, iv, 2 mg/kg, compound 42 i.v., SD rat, individual rats No. 1-3, read-out: C0) is 11500 ng/mL; in data set [1] (Sprague-Dawley, rat, serum, iv, 2 mg/kg, compound 42 i.v., formulation and route otherwise identical to compound 82, SD rat, Mean, read-out: C0) it was 11500 ng/mL; in data set [1] (setting [7]) it was 11344 ng/mL and 11625 ng/mL. Besides, the MRT in data set [1] (Sprague-Dawley, rat, serum, iv, 2 mg/kg, compound 42 i.v., SD rat, individual rats No. 1-3, read-out: MRT) was 1.3 h; in data set [1] (Sprague-Dawley, rat, serum, iv, 2 mg/kg, compound 42 i.v., formulation and route otherwise identical to compound 82, SD rat, Mean, read-out: MRT), 1.26 h; in data set [1] (setting [7]), 1.20 h and 1.28 h; in data set [2] (Sprague-Dawley, rat, serum, po, 20 mg/kg, compound 42 oral, SD rat, individual rats No. 1-3, read-out: MRT) it was 3.46 h; in data set [2] (Sprague-Dawley, rat, serum, po, 20 mg/kg, compound 42 oral, formulation and route otherwise identical to compound 82, SD rat, Mean, read-out: MRT), 3.36 h; in data set [2] (setting [8]), 3.78 h and 2.83 h. The half-life is 1.52 h in data set [1] (Sprague-Dawley, rat, serum, iv, 2 mg/kg, compound 42 i.v., formulation and route otherwise identical to compound 82, SD rat, Mean); 3.28 h in data set [2] (Sprague-Dawley, rat, serum, po, 20 mg/kg, compound 42 oral, SD rat, individual rats No. 1-3); 3.18 h in data set [2] (Sprague-Dawley, rat, serum, po, 20 mg/kg, compound 42 oral, formulation and route otherwise identical to compound 82, SD rat, Mean). Also, the T1/2 was 1.40 h and 0.99 h and 2.16 h in data set [1] (setting [7]); 3.30 h and 2.97 h in data set [2] (setting [8]). For the same compound, the Tmax stood at 1.5 h in data set [2] (Sprague-Dawley, rat, serum, po, 20 mg/kg, compound 42 oral, SD rat, individual rats No. 1-3, read-out: Tmax); 1.33 h in data set [2] (Sprague-Dawley, rat, serum, po, 20 mg/kg, compound 42 oral, formulation and route otherwise identical to compound 82, SD rat, Mean, read-out: Tmax); 1 h in data set [2] (setting [8]).

Regarding `Cc1cc(OC(C)C)cc(C)c1-c1csc(NC(=O)c2ccncc2)n1` [Compound 82], the half-life in data set [1] (Sprague-Dawley, rat, serum, iv, 2 mg/kg, i.v. 2 mg/kg, 5% DMSO, 10% Cremophor, 85% WFI, SD rat, Mean) is 5.14 h; in data set [2] (setting [10]) it was 4.41 h; in data set [2] (setting [11]), 4.53 h. Also, the C0 is 7020 ng/mL in data set [1] (Sprague-Dawley, rat, serum, iv, 2 mg/kg, i.v. 2 mg/kg, 5% DMSO, 10% Cremophor, 85% WFI, SD rat, Mean, read-out: C0); 8180 ng/mL in data set [1] (Sprague-Dawley, rat, serum, iv, 2 mg/kg, i.v. 2 mg/kg, SD rat, individual rats No. 1-3, read-out: C0); 5590 ng/mL and 7282 ng/mL in data set [1] (setting [9]). The MRT inf in data set [1] (Sprague-Dawley, rat, serum, iv, 2 mg/kg, i.v. 2 mg/kg, 5% DMSO, 10% Cremophor, 85% WFI, SD rat, Mean, read-out: MRT0-inf) turned out to be 6.46 h; in data set [2] (setting [10]), 7.73 h; in data set [2] (setting [11]), 7.71 h. Besides, the MRT0-inf was 8.80 h and 3.36 h and 7.22 h in data set [1] (setting [9]); 5.76 h and 9.72 h in data set [2] (setting [12]). Besides, the T1/2 in data set [1] (setting [9]) is 6.85 h and 2.79 h and 5.78 h; in data set [2] (setting [12]), 2.94 h and 5.76 h. For the same compound, the Tmax was determined as 4 h in data set [2] (Sprague-Dawley, rat, serum, po, 20 mg/kg, oral 20 mg/kg, 1% methyl-cellulose, SD rat, Mean, read-out: Tmax) and 4 h in data set [2] (Sprague-Dawley, rat, serum, po, 20 mg/kg, oral 20 mg/kg, SD rat, individual rats No. 1-3, read-out: Tmax).

For the compound `COc1ccc(Oc2cc(C)c(-c3csc(NC(=O)c4ccncc4)n3)c(C)c2)cc1` [Compound 95], the IC50 amounted to 30 nM in data set [3], 50 nM in data set [4], 40 nM in data set [5] and 30 nM in data set [6]. The MRT in data set [1] (Sprague-Dawley, rat, serum, iv, 2 mg/kg, compound 95 i.v., SD rat, individual rats No. 1-3, read-out: MRT) is 131 h; in data set [1] (Sprague-Dawley, rat, serum, iv, 2 mg/kg, compound 95 i.v., formulation and route otherwise identical to compound 82, SD rat, Mean, read-out: MRT), 143 h; in data set [1] (setting [13]) it was 189 h and 108 h; in data set [2] (SD, rat, serum, po, 20 mg/kg, compound 95 oral, SD rat, individual rats No. 1-3, read-out: MRT) it was 4.4 h; in data set [2] (SD, rat, serum, po, compound 95 oral, formulation and route otherwise identical to compound 82, SD rat, Mean, read-out: MRT), 4.24 h; in data set [2] (setting [14]), 4.38 h and 3.92 h. For the same compound, the half-life is 7.36 h in data set [1] (Sprague-Dawley, rat, serum, iv, 2 mg/kg, compound 95 i.v., formulation and route otherwise identical to compound 82, SD rat, Mean); 10.9 h in data set [2] (SD, rat, serum, po, compound 95 oral, formulation and route otherwise identical to compound 82, SD rat, Mean); 9.96 h in data set [2] (Sprague-Dawley, rat, serum, po, 20 mg/kg, compound 95 oral, SD rat, individual rats No. 1-3). Besides, the C0 in data set [1] (Sprague-Dawley, rat, serum, iv, 2 mg/kg, compound 95 i.v., formulation and route otherwise identical to compound 82, SD rat, Mean, read-out: C0) was 3670 ng/mL; in data set [1] (setting [13]), 2519 ng/mL and 3144 ng/mL and 5356 ng/mL. Also, the Tmax in data set [2] (SD, rat, serum, po, compound 95 oral, formulation and route otherwise identical to compound 82, SD rat, Mean, read-out: Tmax) is 3 h; in data set [2] (setting [14]) it was 4.00 h and 1.00 h. For the same compound, the T1/2 in data set [2] (setting [14]) was 12.86 h and 9.75 h.

With `Cc1ccc(Sc2cc(C)c(-c3csc(NC(=O)c4ccncc4)n3)c(C)c2)cc1` [Compound 116], the IC50 in data set [3] stood at 110 nM; in data set [4], 150 nM; in data set [5] it was 130 nM; in data set [6], 120 nM.

Consider `Cc1cc(Cc2ccccc2)cc(C)c1-c1csc(NC(=O)c2ccncc2)n1` [Compound 118], for which the IC50 in data set [3] came out at 150 nM; in data set [4] it was 270 nM; in data set [5], 220 nM; in data set [6], 240 nM.

Take `COc1ccc(Oc2cc(C)c(-c3csc(NC(=O)c4cc[n+]([O-])cc4)n3)c(C)c2)cc1` [Compound 120]: the IC50 in data set [3] was determined as 180 nM; in data set [4] it was 160 nM; in data set [5], 250 nM; in data set [6] it was 220 nM.

Turning to `COc1ccc(Oc2cc(C)c(-c3csc(NC(=O)c4ccncc4C)n3)c(C)c2)cc1` [Compound 121], the IC50 was determined as 320 nM in data set [3], 900 nM in data set [4], 810 nM in data set [5] and 440 nM in data set [6].

As for `Cc1cc(Nc2ccc(Br)cc2)cc(C)c1-c1csc(NC(=O)c2ccncc2)n1` [Compound 122], the IC50 in data set [3] stood at 360 nM; in data set [4] it was 2130 nM; in data set [5], 1220 nM; in data set [6] it was 720 nM.

Turning to `Cc1cc(Nc2ccccc2)c(Br)c(C)c1-c1csc(NC(=O)c2ccncc2)n1` [Compound 123], the IC50 in data set [3] came out at 330 nM; in data set [4], 870 nM; in data set [5], 880 nM; in data set [6], 610 nM.

On to `COc1ccc(Oc2cc(C)c(-c3csc(NC(=O)c4ccnc([N+](=O)[O-])c4)n3)c(C)c2)cc1` [Compound 124], for which the IC50 turned out to be 120 nM in data set [3], 330 nM in data set [4], 530 nM in data set [5] and 220 nM in data set [6].

Turning to `CSc1cc(C)c(-c2csc(NC(=O)c3ccncc3)n2)c(C)c1` [Compound 125], the IC50 in data set [3] stood at 180 nM; in data set [4] it was 270 nM; in data set [5], 250 nM; in data set [6], 160 nM.

With `COc1ccc(Sc2cc(C)c(-c3csc(NC(=O)c4ccnc(F)c4)n3)c(C)c2)cc1` [Compound 126], the IC50 in data set [3] is 20 nM; in data set [4], 40 nM; in data set [5] it was 50 nM; in data set [6] it was 30 nM.

Turning to `Cc1cc(S(C)(=O)=O)cc(C)c1-c1csc(NC(=O)c2ccncc2)n1` [Compound 127], the IC50 in data set [3] worked out at 530 nM; in data set [4] it was 840 nM; in data set [5], 460 nM; in data set [6] it was 450 nM.

In the case of `COc1ccc(Oc2cc(C)c(-c3csc(NC(=O)c4ccnc(N)c4)n3)c(C)c2)cc1` [Compound 128], the IC50 turned out to be 190 nM in data set [3], 240 nM in data set [4], 160 nM in data set [5] and 160 nM in data set [6].

Regarding `COc1ccc(S(=O)(=O)c2cc(C)c(-c3csc(NC(=O)c4ccncc4)n3)c(C)c2)cc1` [Compound 129], the IC50 amounted to 190 nM in data set [3], 270 nM in data set [4], 270 nM in data set [5] and 200 nM in data set [6].

`COc1ccc([S+]([O-])c2cc(C)c(-c3csc(NC(=O)c4ccncc4)n3)c(C)c2)cc1` (stereo not shown) [Compound 130]: the IC50 in data set [3] is 80 nM; in data set [4], 180 nM; in data set [5] it was 140 nM; in data set [6], 90 nM.

`COc1ccc(Oc2cc(C)c(-c3csc(NC(=O)c4ccncc4)n3)c(Cl)c2)cc1` [Compound 131]: the IC50 in data set [3] came out at 40 nM; in data set [4] it was 60 nM; in data set [5], 50 nM; in data set [6], 40 nM.
